Results as given in patent US8901119B2, “Peptide deformylase inhibitors” (GlaxoSmithKline Intellectual Property (No. 2) Limited, priority 2011, dated 2014).
In brackets after ≈: the same amount, converted by molar mass. Where two headings read alike, the source gives them in different places.

Key:
[1] = tested on: Enterococcus faecalis X7501; experiment: Antimicrobial activity assay (broth microdilution MIC); format: cell-based; settings: read-out: MIC, E. faecalis X7501
Procedure: (§1) Whole-cell antimicrobial activity was determined by broth microdilution using the Clinical and Laboratory Standards Institute (CLSI, formerly NCCLS) recommended methodology (NCCLS Document M7-A7, “Methods for Dilution Antimicrobial Susceptibility Tests for Bacteria that Grow Aerobically; Approved Standard—Seventh Edition”, 2006). Compounds were tested in serial two-fold dilutions ranging from 64 to 0.06 μg/mL against a panel of at least 11 strains. This panel consisted of the following laboratory strains: Staphylococcus aureus Oxford, Staphylococcus aureus WCUH29, Enterococcus faecalis I, Enterococcus faecalis 7 or Enterococcus faecalis X7501, Haemophilus influenzae Q1, Haemophilus influenzae NEMC1 or Haemophilus influenzae H128, Moraxella catarrhalis 1502, Streptococcus pneumoniae 1629, Streptococcus pneumoniae N1387, Streptococcus pneumoniae Ery2 and Escherichia coli 7623 or Escherichia coli 3. All compounds were also tested against Haemophilus influenzae H128 or Escherichia coli 7623 efflux minus mutants (strains in which the AcrA efflux pump had been deleted) to ascertain the extent in which the molecules were effluxed out of the bacteria. In addition, the antibacterial activity of some compounds against Streptococcus pyogenes 1307006P and Streptococcus pyogenes 1308007P was also analyzed. The minimum inhibitory concentration (MIC) was determined as the lowest concentration of compound that inhibited visible growth. A mirror reader was used to assist in determining the MIC endpoint.

[2] = tested on: Streptococcus pyogenes 1308007P; experiment: as above; format: cell-based; settings: read-out: MIC, S. pyogenes 1308007P
Procedure: as §1

[3] = tested on: Streptococcus pneumoniae Ery2; experiment: as above; format: cell-based; settings: ERY2, read-out: MIC, S. pneumoniae ERY2
Procedure: as §1

[4] = tested on: Streptococcus pneumoniae N1387; experiment: as above; format: cell-based; settings: read-out: MIC, S. pneumoniae N1387
Procedure: as §1

[5] = tested on: Streptococcus pneumoniae 1629; experiment: as above; format: cell-based; settings: read-out: MIC, S. pneumoniae 1629
Procedure: as §1

[6] = tested on: Haemophilus influenzae H128; experiment: as above; format: cell-based; settings: read-out: MIC, H. influenzae H128
Procedure: as §1

[7] = tested on: Haemophilus influenzae Q1; experiment: as above; format: cell-based
Procedure: as §1

[8] = tested on: Escherichia coli 3; experiment: as above; format: cell-based; settings: read-out: MIC, E. coli 3
Procedure: as §1

[9] = tested on: Moraxella catarrhalis 1502; experiment: as above; format: cell-based
Procedure: as §1

[10] = tested on: Enterococcus faecalis I; experiment: as above; format: cell-based; settings: read-out: MIC, E. faecalis I
Procedure: as §1

[11] = tested on: Staphylococcus aureus Oxford; experiment: as above; format: cell-based; settings: read-out: MIC, S. aureus Oxford
Procedure: as §1

[12] = tested on: Staphylococcus aureus WCUH29; experiment: as above; format: cell-based; settings: read-out: MIC, S. aureus WCUH29
Procedure: as §1

[13] = molecular target: T1, Haemophilus influenzae PDF (Haemophilus influenzae, UniProt P44786); experiment: PDF IC50 Assay 1 (FDH-coupled, absorbance 340 nm); format: biochemical
T1 sequence (P44786 whole entry): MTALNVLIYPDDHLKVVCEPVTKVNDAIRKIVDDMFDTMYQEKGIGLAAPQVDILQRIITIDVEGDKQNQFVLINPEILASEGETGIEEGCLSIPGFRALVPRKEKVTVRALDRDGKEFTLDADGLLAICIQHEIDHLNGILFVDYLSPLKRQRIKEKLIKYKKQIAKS
Procedure: (§2) Enzymatic activity of PDF was measured using a formate dehydrogenase (FDH)-coupled assay [Lazennec and Meinnel (1997) Anal. Biochem. 244, 180-182]. Once formate is released from methionine by PDF, it is oxidized by FDH thereby reducing one molecule of NAD to NADH and resulting in an increase in absorbance at 340 nm. Reactions were initiated by adding PDF to microtiter plates containing all other reaction components and were continuously monitored for 20 min at 25° C. The final reaction composition for the Staphylococcus aureus PDF (SaPDF) assay was 50 mM potassium phosphate, pH 7.6, 5 units/mL FDH, 7 mM NAD, 1% DMSO, 0.01% CHAPS, 1 nM SaPDF, and 3 mM formyl-Met-Ala-Ser in 40 μL total volume. Serial dilutions of inhibitors were performed in DMSO. Reagents and assay format were identical for Haemophilus influenzae PDF except that formyl-Met-Ala-Ser was 6 mM final. In the Streptococcus pneumoniae PDF assay, reaction conditions were similar but contained […] enzyme, 4 mM NAD and 4 mM formyl-Met-Ala-Ser. The varying formyl-Met-Ala-Ser concentrations reflect KM values for substrate using the different PDF isozymes. IC50s were determined by fitting to the equation: % Inhibition=100/1+(IC50/[l])^s, where s is a slope factor, l is the inhibitor concentration and the IC50 is the concentration of compound that causes 50% inhibition.

[14] = molecular target: T2, Streptococcus pneumoniae PDF (Streptococcus pneumoniae serotype 4, UniProt Q9F2F0); experiment: PDF IC50 Assay 1 (FDH-coupled, absorbance 340 nm); format: biochemical; settings: Assay 1 conditions; read-out: IC50, S. pneumoniae PDF activity
T2 sequence (Q9F2F0 1-203): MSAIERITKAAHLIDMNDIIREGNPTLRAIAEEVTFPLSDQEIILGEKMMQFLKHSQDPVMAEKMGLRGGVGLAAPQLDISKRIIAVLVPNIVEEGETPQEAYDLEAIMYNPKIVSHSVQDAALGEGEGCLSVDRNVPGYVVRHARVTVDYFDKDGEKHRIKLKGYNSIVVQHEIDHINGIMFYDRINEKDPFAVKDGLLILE
Procedure: as §2

[15] = molecular target: T3, Staphylococcus aureus PDF (SaPDF) (Staphylococcus aureus, UniProt P68826); experiment: PDF IC50 Assay 1 (FDH-coupled, absorbance 340 nm); format: biochemical; settings: Assay 1 conditions; read-out: IC50, S. aureus PDF activity
T3 sequence (P68826 1-183): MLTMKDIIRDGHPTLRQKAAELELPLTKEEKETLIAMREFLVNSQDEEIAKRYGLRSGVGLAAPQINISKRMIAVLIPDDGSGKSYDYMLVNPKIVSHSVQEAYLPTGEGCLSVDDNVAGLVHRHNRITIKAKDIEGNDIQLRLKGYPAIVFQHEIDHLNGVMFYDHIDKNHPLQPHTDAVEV
Procedure: as §2

[16] = molecular target: T1, Haemophilus influenzae PDF; experiment: PDF IC50 Assay 2 (FDH/NAD+/Diaphorase-coupled fluorescence); format: biochemical
Procedure: (§3) Enzymatic activity of PDF was measured using a formate dehydrogenase (FDH)/NAD+/Diaphorase-coupled Fluorescence detection assay. Once formate is released from methionine by PDF, it is oxidized by FDH, thereby reducing one molecule of NAD to NADH. Diaphorase then catalyzes the conversion of Resazurin to Resarufin using the NADH produced by the FDH reaction. The fluorescence intensity of Resarufin is monitored by excitation at 525 nm and emission at 598 nm. The reaction is assembled by first adding the NAD, f-MAS and Resazurin to each well of a 384 well plate containing 50 nl of test compounds. Reactions were initiated by adding PDF in reaction buffer containing FDH and Diaphorase. The final reaction composition for the Staphylococcus aureus PDF (SaPDF) assay was 50 mM potassium phosphate, 0.025% CHAPS pH 7.6, 0.25 units/mL FDH, 0.156 μm! Diaphorase; 0.025 mg/ml BSA; 1 mM NAD, 0.5% DMSO, 1 mM formyl-Met-Ala-Ser; 5 uM Resazurin, and 1 nM SaPDF, in 10 μL total volume. Serial dilutions of inhibitors were performed in DMSO. Reagents and assay format were identical for the Haemophilus influenzae PDF; in the Streptococcus pneumoniae PDF assays, assay composition was the same, except that […] enzyme was used. The endpoint of each reaction was chosen to ensure that all data were collected within the linear range of catalysis. IC50s were determined by fitting to the equation: % Inhibition=100/1+(IC50/[l])^s, where s is a slope factor, l is the inhibitor concentration and the IC50 is the concentration of compound that causes 50% inhibition.

[17] = molecular target: T2, Streptococcus pneumoniae PDF; experiment: as above; format: biochemical; settings: Assay 2 conditions; read-out: IC50, S. pneumoniae PDF activity
Procedure: as §3

[18] = molecular target: T3, Staphylococcus aureus PDF (SaPDF); experiment: as above; format: biochemical; settings: Assay 2 conditions; read-out: IC50, S. aureus PDF activity
Procedure: as §3

Structure (SMILES) | MIC [1] [µg/mL] | MIC [2] [µg/mL] | MIC [3] [µg/mL] | MIC [4] [µg/mL] | MIC [5] [µg/mL] | MIC [6] [µg/mL] | MIC ([7]; Q1, broth microdilution, read-out: MIC, H. influenzae Q1) [µg/mL] | MIC [8] [µg/mL] | MIC [9] [µg/mL] | MIC [10] [µg/mL] | MIC [11] [µg/mL] | MIC [12] [µg/mL] | IC50 [13] [nM] | IC50 [14] [nM] | IC50 [15] [nM] | MIC ([7]; Q1, read-out: MIC, H. influenzae Q1) [µg/mL] | IC50 [16] [nM] | IC50 [17] [nM] | IC50 [18] [nM]
O=CN(O)C[C@@H](CC1CCCC1)C(=O)N1NCC[C@H]1C(=O)Nc1ccncn1 [Example 59, (3S)-2-((2R)-3-Cyclopentyl-2-{[formyl(hydroxy)amino]methyl}propanoyl)-N-4-pyrimidinyl-3-pyrazolidinecarboxamide] | 1 (≈ 2.56 µM) | 0.25 (≈ 0.64 µM) | 0.25 (≈ 0.64 µM) | 0.5 (≈ 1.28 µM) | 1 (≈ 2.56 µM) | 0.5 (≈ 1.28 µM) | 0.25 (≈ 0.64 µM) | 16 (≈ 41 µM) | ≤ 0.06 | 2 (≈ 5.12 µM) | 0.5 (≈ 1.28 µM) | ≤ 0.06 | ≤ 1000 | ≤ 1000 | ≤ 1000 |  |  |  | 
O=CN(O)C[C@@H](CC1CCCC1)C(=O)N1NCC[C@H]1C(=O)Nc1ncccn1 [Example 84, (3S)-2-((2R)-3-Cyclopentyl-2-{[formyl(hydroxy)amino]methyl}propanoyl)-N-2-pyrimidinyl-3-pyrazolidinecarboxamide] | 16 (≈ 41 µM) | 0.5 (≈ 1.28 µM) | 1 (≈ 2.56 µM) | 1 (≈ 2.56 µM) | 1 (≈ 2.56 µM) | 0.5 (≈ 1.28 µM) |  | 16 (≈ 41 µM) | ≤ 0.06 | 8 (≈ 20.5 µM) | 0.5 (≈ 1.28 µM) | 0.125 (≈ 0.32 µM) |  |  |  | 0.125 (≈ 0.32 µM) | ≤ 1000 | ≤ 1000 | ≤ 1000
CCCCC[C@H](CN(O)C=O)C(=O)N1NCC[C@H]1C(=O)Nc1ccncn1 [Example 101, (3S)-2-((2R)-2-{[Formyl(hydroxy)amino]methyl}heptanoyl)-N-4-pyrimidinyl-3-pyrazolidinecarboxamide] |  |  |  |  |  |  |  |  |  |  |  |  |  |  |  |  | ≤ 1000 | ≤ 1000 | ≤ 1000
CN(C)CCOc1nccc(NC(=O)[C@@H]2CCNN2C(=O)[C@H](CC2CCCC2)CN(O)C=O)n1 [Example 81, (3S)-2-((2R)-3-Cyclopentyl-2-{[formyl(hydroxy)amino]methyl}propanoyl)-N-(2-{[2-(dimethylamino)ethyl]oxy}-4-pyrimidinyl)-3-pyrazolidinecarboxamide] |  |  |  |  |  |  |  |  |  |  |  |  |  |  |  |  | ≤ 1000 | ≤ 1000 | ≤ 1000
CCCCC[C@H](CN(O)C=O)C(=O)N1NCC[C@H]1C(=O)Nc1ccc(F)cn1 [Example 100, (3S)—N-(5-Fluoro-2-pyridinyl)-2-((2R)-2-{[formyl(hydroxy)amino]methyl}heptanoyl)-3-pyrazolidinecarboxamide] |  |  |  |  |  |  |  |  |  |  |  |  | ≤ 1000 | ≤ 1000 | ≤ 1000 |  |  |  | 
